In patent publication US20230089073A1 (Carmot Therapeutics, Inc., priority 2021, published 2023):

What follows are compounds tested against T1, human GLP-1 receptor (Homo sapiens, UniProt P43220) (assay: GLP-1R cAMP Assay). Conditions: cAMP accumulation in CHO cells stably overexpressing the human GLP-1 receptor; 30 min treatment; HitHunter cAMP kit; read-out: EC50.
T1 construct: expressed in transfected cells
T1 sequence (P43220 24-463): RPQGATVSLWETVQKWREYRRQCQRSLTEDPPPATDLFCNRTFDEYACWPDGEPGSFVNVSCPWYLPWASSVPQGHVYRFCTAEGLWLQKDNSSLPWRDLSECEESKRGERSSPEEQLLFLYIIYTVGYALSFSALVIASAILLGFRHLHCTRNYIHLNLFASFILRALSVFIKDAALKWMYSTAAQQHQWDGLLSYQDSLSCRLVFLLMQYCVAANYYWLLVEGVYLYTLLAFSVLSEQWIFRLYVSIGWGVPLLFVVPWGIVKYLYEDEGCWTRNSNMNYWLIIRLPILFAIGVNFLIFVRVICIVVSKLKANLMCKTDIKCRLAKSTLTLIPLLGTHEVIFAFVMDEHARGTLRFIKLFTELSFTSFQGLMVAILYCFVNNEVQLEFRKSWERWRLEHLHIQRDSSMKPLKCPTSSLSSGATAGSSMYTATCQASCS
Assay type: cell-based
Description: cAMP accumulation was measured in Chinese hamster ovary (CHO) cells stably overexpressing the human GLP-1 receptor using the HitHunter cAMP Assay for Small Molecules Kit (Eurofins). Briefly, cells were grown in Ham's F12 Nutrient Mix with 10% FBS, and lifted with Cell Dissociation Buffer, Enzyme free, PBS based (ThermoFisher). […] The anti-cAMP antibody reagent was then added to cells at a 1:2 ratio and 5 μL of mixture was seeded in 384-well small volume white assay plates, at 10,000 cells/well. Cells were then treated with 50 nL compound using an ECHO 550 acoustic dispenser (Labcyte) in a 20-point dose response format in triplicate for 30 min. Cells were then lysed, and detection reagents added according to the manufacturer's protocol. After overnight incubation, luminescence was measured using a Perkin Elmer Envision plate reader. Dose response curves were analyzed using GraphPad Prism 9.0.
`N#Cc1ccc(OCc2cccc(OC3CCN(Cc4nc5ccc(C(=O)O)nc5n4C[C@@H]4CCO4)CC3)n2)c(F)c1` [Example 372, (S)-2-((4-((6-((4-Cyano-2-fluorophenoxy)methyl)pyridin-2-yl)oxy)piperidin-1-yl)methyl)-3-(oxetan-2-ylmethyl)-3H-imidazo[4,5-b]pyridine-5-carboxylic acid] showed an EC50 of under 0.05 µM. For `O=C(O)c1ccc2nc(CN3CCC(Oc4ccnc(COc5ccc(Cl)cc5F)c4)CC3)n(CC3(O)CC3)c2c1` [Compound 345], the EC50 was under 0.05 µM. With `Cc1cccc(Oc2ccc(C(=O)N3CCN(Cc4nc5ccc(C(=O)O)cc5n4C[C@@H]4CCO4)CC3)cc2)c1` [Compound 21, 2-({4-[4-(3-methylphenoxy)benzoyl]piperazin-1-yl}methyl)-1-{[(2S)-oxetan-2-yl]methyl}-1H-1,3-benzodiazole-6-carboxylic acid] the EC50 was over 0.5 µM. `N#Cc1cc(F)ccc1OCc1cccc(OC2CCN(Cc3nc4c(F)cc(C(=O)O)cc4n3C[C@@H]3CCO3)CC2)c1` [Compound 317] was tested, and the EC50 was under 0.05 µM. `N#Cc1ccc(OCc2nccc(O[C@@H]3C[C@@H]4C[C@H]3CN4Cc3nc4ccc(C(=O)O)cc4n3C[C@@H]3CCO3)n2)c(F)c1` [Compound 506, 2-{[(1S,4S,5R)-5-({2-[(4-cyano-2-fluorophenoxy)methyl]pyrimidin-4-yl}oxy)-2-azabicyclo[2.2.1]heptan-2-yl]methyl}-1-{[(2S)-oxetan-2-yl]methyl}-1H-1,3-benzodiazole-6-carboxylic acid] showed an EC50 of under 0.05 µM. `O=C(O)c1ccc2nc(CN3CCN(C(=O)c4cccc(Oc5cc(Cl)ccc5F)c4)CC3)n(C[C@@H]3CCO3)c2c1` [Compound 12, 2-({4-[3-(5-chloro-2-fluorophenoxy)benzoyl]piperazin-1-yl}methyl)-1-{[(2S)-oxetan-2-yl]methyl}-1H-1,3-benzodiazole-6-carboxylic acid] was tested, and the EC50 was over 0.5 µM. `O=C(O)c1ccc2nc(CN3CCC(Oc4ccnc(COc5ccc(Cl)cc5CO)c4)CC3)n(CC3CCO3)c2c1` (stereo not shown) [Compound 292, 2-({4-[(2-{[4-chloro-2-(hydroxymethyl)phenoxy]methyl}pyridin-4-yl)oxy]piperidin-1-yl}methyl)-1-[(oxetan-2-yl)methyl]-1H-1,3-benzodiazole-6-carboxylic acid] gave an EC50 of under 0.05 µM. Work on `CCn1cncc1Cn1c(CN2CCN(C(=O)c3cnc(COc4ccc(C5CC5)cc4Cl)o3)CC2)nc2ccc(C(=O)O)cc21` [Compound 160, 2-[(4-{2-[(2-chloro-4-cyclopropylphenoxy)methyl]-1,3-oxazole-5-carbonyl}piperazin-1-yl)methyl]-1-[(1-ethyl-1H-imidazol-5-yl)methyl]-1H-1,3-benzodiazole-6-carboxylic acid] yielded an EC50 of under 0.05 µM. `CCn1cncc1Cn1c(CN2CCC(Cc3cc(COc4ccc(Cl)cc4Cl)ccc3F)CC2)nc2ccc(C(=O)O)cc21` [Compound 137, 2-{[4-({5-[(2,4-dichlorophenoxy)methyl]-2-fluorophenyl}methyl)piperidin-1-yl]methyl}-1-[(1-ethyl-1H-imidazol-5-yl)methyl]-1H-1,3-benzodiazole-6-carboxylic acid] was tested, and the EC50 was under 0.05 µM. In the case of `C[C@H]1CN(C(=O)c2cnc(COc3ccc(Cl)cc3Cl)o2)CCN1Cc1nc2ccc(C(=O)O)cc2n1C[C@@H]1CCO1` [Example 186, 2-(((S)-4-(2-((2,4-Dichlorophenoxy)methyl)oxazole-5-carbonyl)-2-methylpiperazin-1-yl)methyl)-1-(((S)-oxetan-2-yl)methyl)-1H-benzo[d]imidazole-6-carboxylic acid], the EC50 is reported as under 0.05 µM. Work on `O=C(O)c1ccc2nc(CN3CCC(Oc4ccnc(COc5ccc(C(F)F)cc5F)c4)CC3)n(C[C@@H]3CCO3)c2c1` [Example 297, (S)-2-((4-((2-((4-(Difluoromethyl)-2-fluorophenoxy)methyl)pyridin-4-yl)oxy)piperidin-1-yl)methyl)-1-(oxetan-2-ylmethyl)-1H-benzo[d]imidazole-6-carboxylic acid] yielded an EC50 of under 0.05 µM. `O=C(O)c1ccc2nc(CN3CCN(Cc4cc5ccc(-c6ccc(Cl)cc6F)cc5o4)CC3)n(C[C@@H]3CCO3)c2c1` [Compound 28, 2-[(4-{[6-(4-chloro-2-fluorophenyl)-1-benzofuran-2-yl]methyl}piperazin-1-yl)methyl]-1-{[(2S)-oxetan-2-yl]methyl}-1H-1,3-benzodiazole-6-carboxylic acid] was tested, and the EC50 was over 0.5 µM. `O=C(O)c1cc(F)c2nc(CN3CCC(Oc4ccnc(COc5ccc(Cl)cc5Cl)n4)CC3)n(C[C@@H]3CCO3)c2c1` [Compound 305] gave an EC50 of under 0.05 µM. With `O=C(O)c1ccc2nc(CN3CCC(Oc4ccnc(COc5ccc(C(F)(F)F)cc5F)c4)CC3)n(C[C@@H]3CCO3)c2c1` [Compound 356] the EC50 was under 0.05 µM. In the case of `Cc1ccc(N(C)c2cccc(C3(N4CCN(Cc5nc6ccc(C(=O)O)cc6n5C[C@@H]5CCO5)CC4)CC3)c2)c(Cl)c1` [Example 105, (S)-2-((4-(1-(3-((2-chloro-4-methylphenyl)(methyl)amino)phenyl)cyclopropyl)piperazin-1-yl)methyl)-1-(oxetan-2-ylmethyl)-1H-benzo[d]imidazole-6-carboxylic acid], the EC50 is reported as over 0.5 µM. Compound `N#Cc1ccc(OCc2cccc(OC3CCN(Cc4nc5c(F)cc(C(=O)O)cc5n4CC4(CF)CC4)CC3)c2)c(F)c1` [Example 300, 2-((4-(3-((4-Cyano-2-fluorophenoxy)methyl)phenoxy)piperidin-1-yl)methyl)-4-fluoro-1-((1-(fluoromethyl)cyclopropyl)methyl)-1H-benzo[d]imidazole-6-carboxylic acid] has an EC50 of under 0.05 µM. Compound `CCn1cncc1Cn1c(CN2CCC(Cc3cnc(COc4ccc(Cl)cc4C)o3)CC2)nc2ccc(C(=O)O)cc21` [Compound 141, 2-{[4-({2-[(4-chloro-2-methylphenoxy)methyl]-1,3-oxazol-5-yl}methyl)piperidin-1-yl]methyl}-1-[(1-ethyl-1H-imidazol-5-yl)methyl]-1H-1,3-benzodiazole-6-carboxylic acid] has an EC50 of under 0.05 µM. With `N#Cc1ccc(OCc2cc(OC3CCN(Cc4nc5c(F)cc(C(=O)O)cc5n4C[C@@H]4CCO4)CC3)ccn2)c(F)c1` [Compound 365] the EC50 was under 0.05 µM. In the case of `O=C(O)c1ccc2nc(CN3CCC(Cc4cnc(COc5ccc(Cl)cc5Cl)o4)CC3)n(C[C@@H]3CCO3)c2n1` [Compound 129, 2-{[4-({2-[(2,4-dichlorophenoxy)methyl]-1,3-oxazol-5-yl}methyl)piperidin-1-yl]methyl}-3-{[(2S)-oxetan-2-yl]methyl}-3H-imidazo[4,5-b]pyridine-5-carboxylic acid], the EC50 is reported as under 0.05 µM. Work on `CCn1cncc1Cn1c(CN2CCN(C(=O)c3ccc(COc4ccc(C)cc4C)o3)CC2)nc2ccc(C(=O)O)cc21` [Compound 55, 2-[(4-{5-[(2,4-dimethylphenoxy)methyl]furan-2-carbonyl}piperazin-1-yl)methyl]-1-[(1-ethyl-1H-imidazol-5-yl)methyl]-1H-1,3-benzodiazole-6-carboxylic acid] yielded an EC50 of under 0.05 µM. Work on `O=C(O)c1ccc2nc(CN3CCN(Cc4ccc(COc5ccc(Cl)cc5Cl)o4)CC3)n(C[C@@H]3CCO3)c2c1` [Compound 9, 2-{[4-({5-[(2,4-dichlorophenoxy)methyl]furan-2-yl}methyl)piperzin-1-yl]methyl}-1-{[(2S)-oxetan-2-yl]methyl}-1H-1,3-benzodiazole-6-carboxylic acid] yielded an EC50 of 0.05 to 0.5 µM. Work on `O=C(O)c1ccc2nc(CN3CCc4c([nH]c5c(OCc6ccc(Cl)cc6F)cccc45)C3)n(C[C@@H]3CCO3)c2c1` [Example 121, (S)-2-((8-((4-Chloro-2-fluorobenzyl)oxy)-1,3,4,9-tetrahydro-2H-pyrido[3,4-b]indol-2-yl)methyl)-1-(oxetan-2-ylmethyl)-1H-benzo[d]imidazole-6-carboxylic acid] yielded an EC50 of over 0.5 µM. For `C[C@H]1C[C@@H](Oc2ccnc(COc3ccc(F)cc3F)n2)CCN1Cc1nc2ccc(C(=O)O)cc2n1C[C@@H]1CCO1` [Compound 485, 2-{[(2S,4S)-4-({2-[(2,4-difluorophenoxy)methyl]pyrimidin-4-yl}oxy)-2-methylpiperidin-1-yl]methyl}-1-{[(2S)-oxetan-2-yl]methyl}-1H-1,3-benzodiazole-6-carboxylic acid], the EC50 was under 0.05 µM. `CCn1cncc1Cn1c(CN2CCC(Cc3cnc(COc4ncc(C5CC5)cc4Cl)o3)CC2)nc2ccc(C(=O)O)cc21` [Compound 144, 2-({4-[(2-{[(3-chloro-5-cyclopropylpyridin-2-yl)oxy]methyl}-1,3-oxazol-5-yl)methyl]piperidin-1-yl}methyl)-1-[(1-ethyl-1H-imidazol-5-yl)methyl]-1H-1,3-benzodiazole-6-carboxylic acid] showed an EC50 of under 0.05 µM. Compound `C[C@H]1C[C@@H](Oc2ccnc(COc3ccc(C#N)cc3F)n2)CCN1Cc1nc2ccc(C(=O)O)nc2n1C[C@@H]1CCO1` [Compound 375] has an EC50 of under 0.05 µM. With `CCn1cncc1Cn1c(CN2CCC([C@H](OC)c3cccc(COc4ccc(Cl)cc4Cl)c3)CC2)nc2ccc(C(=O)O)cc21` (single isomer, unassigned) [Example 205] the EC50 was 0.05 to 0.5 µM. `O=C(O)c1ccc2nc(CN3CCN(Cc4cc5ccc(-c6ccc(Cl)cc6Cl)cc5o4)CC3)n(C[C@@H]3CCO3)c2c1` [Example 27, (S)-2-((4-((6-(2,4-Dichlorophenyl)benzofuran-2-yl)methyl)piperazin-1-yl)methyl)-1-(oxetan-2-ylmethyl)-1H-benzo[d]imidazole-6-carboxylic acid] gave an EC50 of over 0.5 µM. `O=C(O)c1ccc2nc(CN3CCC(Oc4cccc(COc5ccc(Cl)cc5Cl)c4)CC3)n(C[C@@H]3CCO3)c2c1F` [Compound 224, 2-[(4-{3-[(2,4-dichlorophenoxy)methyl]phenoxy}piperidin-1-yl)methyl]-7-fluoro-1-{[(2S)-oxetan-2-yl]methyl}-1H-1,3-benzodiazole-6-carboxylic acid] was tested, and the EC50 was under 0.05 µM.
